Reference: patent publication US20070166317A1, “Microparticles” (priority 2003, published 2007)

Experiments:
[1] = test system: CHO cells; experiment: Cellular association of peptide modified latex microparticles, confocal microscopy, CHO cells; type: cell-based, Chinese Hamster; settings: 3 hours at 37° C., 10 ng peptide/μg Sigma carboxylate modified latex, 0.15 μg latex/μL of media, FIG. 4
Description: (§1) Latex (50 to 100 μL) was added to PBS (890 to 945 μL) followed by peptide solution (5 to 10 μL) and the resultant 1 mL solution mixed. The material was left to stand at room temperature for 2 hours and then dialysed over night against 2 L of PBS in the dark at 4° C. The particles were then recovered stored at 4° C. in the dark and used without further treatment.
(§2) CHO stock culture was grown in Ham's F12 media supplemented with 10% foetal bovine serum, glutamine (2 mM), fungizone (50 mg/ml) and pen-strep (0.1 mg/ml). Cells were seeded at 1 to 2×10^4 cell/cm^2 using 0.25% trypsin-EDTA and maintained in a humidified 5% CO2 atmosphere, at 37° C. and sub-cultured twice a week.
(§3) Prior (48 hr) to an experiment CHO or HFFF2 cells were plated at 2×10^4/cm^2 in an 8 well chamber slide, 0.7 cm^2 and 0.2 mL/chamber. One day before the experiment, media was replaced with a similar media but containing no lipids. On the day of the experiment, the cells for 4° C. incubation were chilled for 15 minutes prior to any additions. The wells were washed with 0.1 mL of phosphate buffered saline (PBS) and the synthetic LDL system in media added. The slides were then incubated for 1 or 3 hours at either 4° C. or 37° C. the latter in a humidified 5% CO2 atmosphere. […] The lens employed was ×20 PA with a numerical aperture of 0.75 and the data analysed using “Laser-sharp” software (Bio-Rad).

[2] = target: T1, LDL receptor (Homo sapiens, UniProt P01130); experiment: Effect of anti-LDL receptor antibody on cellular association of peptide modified latex, normal fluorescent microscopy, HFFF-2 cells; type: cell-based; settings: 3 hours at 37° C., antibody 8 μg/mL, peptide on Sigma carboxylate modified latex, 0.15 μg latex/μL, FIG. 6
T1 construct: endogenous in cells; host or cells: HFFF-2 fibroblast cells (ECACC 86031405)
T1 sequence (P01130 22-860): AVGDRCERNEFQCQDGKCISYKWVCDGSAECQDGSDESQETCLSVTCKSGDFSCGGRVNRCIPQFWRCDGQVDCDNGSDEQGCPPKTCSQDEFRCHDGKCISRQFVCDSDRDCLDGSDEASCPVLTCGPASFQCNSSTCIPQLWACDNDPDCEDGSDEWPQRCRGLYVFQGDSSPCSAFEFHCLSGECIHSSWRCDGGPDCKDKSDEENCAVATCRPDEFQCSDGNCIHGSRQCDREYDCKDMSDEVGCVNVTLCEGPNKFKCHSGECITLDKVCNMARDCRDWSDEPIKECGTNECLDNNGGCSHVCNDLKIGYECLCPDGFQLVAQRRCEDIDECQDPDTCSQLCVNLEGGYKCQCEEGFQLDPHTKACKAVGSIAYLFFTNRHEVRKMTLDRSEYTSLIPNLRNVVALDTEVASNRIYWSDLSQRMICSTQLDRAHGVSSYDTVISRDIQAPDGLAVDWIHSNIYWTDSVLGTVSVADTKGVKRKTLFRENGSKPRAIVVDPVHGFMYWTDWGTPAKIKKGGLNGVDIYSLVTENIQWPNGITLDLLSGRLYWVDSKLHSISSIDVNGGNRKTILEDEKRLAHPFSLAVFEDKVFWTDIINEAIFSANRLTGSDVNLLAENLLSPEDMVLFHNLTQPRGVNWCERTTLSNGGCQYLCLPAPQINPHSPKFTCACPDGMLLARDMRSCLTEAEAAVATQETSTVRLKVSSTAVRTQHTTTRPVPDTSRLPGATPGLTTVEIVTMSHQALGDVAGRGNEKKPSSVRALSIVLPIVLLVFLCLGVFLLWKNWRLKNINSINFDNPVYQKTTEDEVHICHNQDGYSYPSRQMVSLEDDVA
Description: as §1
as §2, with “HFFF2 stock” for “CHO stock”, “in Dulbecco's modified Eagle's” for “in Ham's F12”, “10% v/v” for “10%”, “at 2” for “at 1”, “to 3×10^4” for “to 2×10^4”
Prior (48 hr) to an experiment CHO or HFFF2 cells were plated at 2×10^4/cm^2 in an 8 well chamber slide, 0.7 cm^2 and 0.2 mL/chamber. One day before the experiment, media was replaced with a similar media but containing no lipids. On the date of the experiment, the cells for 4° C. incubation were chilled for 15 minutes prior to any additions. The wells were washed with 0.1 mL of phosphate buffered saline (PBS) and the synthetic LDL microparticle system, in media, added. The slides were then incubated for 1 or 3 hours at either 4° C. or 37° C. the latter in a humidified 5% CO2 atmosphere. […]

[3] = target: T1, LDL receptor; experiment: Effect of anti-LDL receptor antibody on cellular association of peptide modified latex, confocal microscopy, HFFF-2 cells; type: cell-based; settings: 3 hours at 37° C., antibody 8 μg/mL, peptide on Fluoresbrite latex, 0.15 μg latex/μL, FIG. 5
Description: as §1
as §2, with “HFFF2 stock” for “CHO stock”, “in Dulbecco's modified Eagle's” for “in Ham's F12”, “10% v/v” for “10%”, “at 2” for “at 1”, “to 3×10^4” for “to 2×10^4”
as §3

reduction of cellular association by anti-LDL receptor antibody (confocal microscopy) [3] | Substance | cellular association of peptide modified latex (rank order between peptides, fluorescence) [1] | reduction of cellular association by anti-LDL receptor antibody (normal fluorescent microscopy) [2]
 | peptide 3: Retinoic Acid-Tyr-Lys-Leu-Glu-Gly-Thr-Thr-Arg-Leu-Thr-Arg-Lys-Arg-Gly-Leu-Lys-Leu-Ala-Thr-Ala-Leu-Ser-Cholesterol ({retinoic acid}-YKLEGTTRLTRKRGLKLATALS-cholesterol) | increased cellular association for peptide 4 followed by peptide 3 and then peptide 1 | the reduction due to the presence of the antibody is clearly visible
the reduction is not as great | peptide 4: Pyrene Butyric Acid-Lys-Leu-Glu-Gly-Thr-Thr-Arg-Leu-Thr-Arg-Lys-Arg-Gly-Leu-Lys-Leu-Ala-Thr-Ala-Leu-Ser-Leu-Phe-Leu-Phe-Cholesterol ({pyrene butyric acid}-KLEGTTRLTRKRGLKLATALSLFLF-cholesterol) | increased cellular association for peptide 4 followed by peptide 3 and then peptide 1 | 
